US11434242B2, “Dopamine-b-hydroxylase inhibitors” (BIAL-PORTELA & Cª, S.A., priority 2017, dated 2022)
Marks after values point to notes of the source that are not given here.

Target: T1, Dopamine beta hydroxylase (Homo sapiens, UniProt P09172)
T1 construct: 125 μl of plasma; tissue Instituto Português do Sangue Transplantação; host or cells: human plasma from healthy donors
T1 sequence (P09172 40-617 limits assumed): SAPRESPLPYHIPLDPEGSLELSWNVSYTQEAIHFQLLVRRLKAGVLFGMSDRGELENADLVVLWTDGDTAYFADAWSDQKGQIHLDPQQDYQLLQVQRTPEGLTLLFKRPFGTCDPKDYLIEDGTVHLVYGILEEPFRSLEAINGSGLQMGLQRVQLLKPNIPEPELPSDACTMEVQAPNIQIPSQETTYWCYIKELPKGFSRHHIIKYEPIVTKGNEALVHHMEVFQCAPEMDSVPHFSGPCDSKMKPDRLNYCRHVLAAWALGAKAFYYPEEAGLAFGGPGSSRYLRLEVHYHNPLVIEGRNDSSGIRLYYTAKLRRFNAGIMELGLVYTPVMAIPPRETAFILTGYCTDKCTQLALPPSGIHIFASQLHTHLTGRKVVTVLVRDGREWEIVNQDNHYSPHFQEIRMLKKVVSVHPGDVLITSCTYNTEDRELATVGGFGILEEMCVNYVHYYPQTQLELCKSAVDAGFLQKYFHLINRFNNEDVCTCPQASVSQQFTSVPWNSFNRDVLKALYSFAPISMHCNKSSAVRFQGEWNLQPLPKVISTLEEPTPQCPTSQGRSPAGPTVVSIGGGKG
Experiment: Dopamine beta hydroxylase activity in human plasma
Format: biochemical
In short: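 Octopamine production from tyramine over 45 min at 37° C, measured photometrically at 330 nm after SCX extraction and periodate oxidation against an octopamine standard curve, indicates plasma DβH activity. Compounds tested at final 10, 100 and 1000 nM in human plasma, pH 5.0 cofactor buffer, 10 min preincubation; results as % of control.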

Row | Plasma (0.01 μM), activity in % of control (inhibitor 0.01 μM) | Plasma (0.01 μM), activity in % of control, re-test (asterisked) (inhibitor 0.01 μM, re-tested under the same experimental conditions, asterisked data believed to be correct) | Plasma (0.1 μM), activity in % of control (inhibitor 0.1 μM) | Plasma (0.1 μM), activity in % of control, re-test (asterisked) (inhibitor 0.1 μM, re-tested under the same experimental conditions, asterisked data believed to be correct) | Structure (SMILES)
1 | 31.8 % of control | 90.1* % of control | 1.4 % of control | 22.5* % of control | O=C(Cc1[nH]c(=S)n2c1C[C@H](c1c(F)c(F)cc(F)c1F)C2)N[C@@H]1CCOC1 [Example 360, 2-((R)-6-(2,3,5,6-tetrafluorophenyl)-3-thioxo-2,5,6,7-tetrahydro-3H-pyrrolo[1,2-c]imidazol-1-yl)-N—((R)-tetrahydrofuran-3-yl)acetamide]
2 | 104.4 % of control |  | 63.1 % of control |  | O=C(Cc1[nH]c(=S)n2c1C[C@H](c1c(F)ccc(F)c1F)C2)N[C@@H]1CCOC1 [Example 368, 2-((R)-6-(2,3,6-trifluorophenyl)-3-thioxo-2,5,6,7-tetrahydro-3H-pyrrolo[1,2-c]imidazol-1-yl)-N—((R)-tetrahydrofuran-3-yl)acetamide]
3 | 67.7 % of control |  | 22.7 % of control |  | O=C(O)CCc1[nH]c(=S)n2c1C[C@H](c1c(F)c(F)cc(F)c1F)C2 [Example 202, (R)-3-(6-(2,3,5,6-tetrafluorophenyl)-3-thioxo-2,5,6,7-tetrahydro-3H-pyrrolo[1,2-c]imidazol-1-yl)propanoic Acid]
4 | 75.2 % of control |  | 33.1 % of control |  | CN1C[C@@H](NC(=O)Cc2c3n(c(=S)n2C)C[C@@H](c2c(F)ccc(F)c2F)C3)CC1=O [Example 389, 2-((R)-2-methyl-3-thioxo-6-(2,3,6-trifluorophenyl)-2,5,6,7-tetrahydro-3H-pyrrolo[1,2-c]imidazol-1-yl)-N—((S)-1-methyl-5-oxopyrrolidin-3-yl)acetamide]
5 | 101.2 % of control |  | 53.3 % of control |  | Cn1c(CCN[C@@H]2CCOC2)c2n(c1=S)C[C@@]1(c3cc(Br)ccc3F)C[C@@H]21 [Example 359, (5aS,6aR)-5a-(5-bromo-2-fluorophenyl)-2-methyl-1-(2-(((R)-tetrahydrofuran-3-yl)amino)ethyl)-5,5a,6,6a-tetrahydrocyclopropa[3,4]pyrrolo[1,2-c]imidazole-3(2H)-thione]
6 | 87.1 % of control |  | 58.3 % of control |  | Cn1c(CC(=O)N[C@H]2CCOC2)c2n(c1=S)C[C@@H](c1c(F)ccc(F)c1F)C2 [Example 289, 2-((R)-2-methyl-3-thioxo-6-(2,3,6-trifluorophenyl)-2,5,6,7-tetrahydro-3H-pyrrolo[1,2-c]imidazol-1-yl)-N—((S)-tetrahydrofuran-3-yl)acetamide]
7 | 82.6 % of control |  | 70.1 % of control |  | Cn1c(CCC(N)=O)c2n(c1=S)C[C@H](c1c(F)ccc(Cl)c1F)C2 [Example 262, (S)-3-(6-(3-chloro-2,6-difluorophenyl)-2-methyl-3-thioxo-2,5,6,7-tetrahydro-3H-pyrrolo[1,2-c]imidazol-1-yl)propanamide]
8 | 72.9 % of control |  | 21.5 % of control |  | O=C(Cc1[nH]c(=S)n2c1C[C@@H](c1c(F)ccc(Br)c1F)C2)N1CCSCC1 [Example 137, (S)-2-(6-(3-bromo-2,6-difluorophenyl)-3-thioxo-2,5,6,7-tetrahydro-3H-pyrrolo[1,2-c]imidazol-1-yl)-1-thiomorpholinoethan-1-one]
9 | 50.0 % of control |  | 9.4 % of control |  | Cn1c(CC(=O)NC[C@@H]2CCCO2)c2n(c1=S)C[C@H](c1c(F)ccc(Cl)c1F)C2 [Example 336, 2-((S)-6-(3-chloro-2,6-difluorophenyl)-2-methyl-3-thioxo-2,5,6,7-tetrahydro-3H-pyrrolo[1,2-c]imidazol-1-yl)-N—(((S)-tetrahydrofuran-2-yl)methyl)acetamide]
